Assays:
induced colitis = conditions: mice lacking the enzyme HPRT, treatment with 6-thioguanine; cited from earlier work
[1] = Particle size distribution (Malvern Mastersizer 3000); type: physicochemical; conditions: dispersed in n-heptane containing 0.1% span 80 pre-saturated with 6-thioguanine
Procedure: The particles size distribution of the API alone and in the rectal suppository formulations was measured using a Malvern Mastersizer 3000 (Hydro SM). The samples were dispersed in n-heptane containing 0.1% span 80 pre-saturated with 6-thioguanine (to reduce any dissolution of the 6-thioguanine particles in the samples).

Row | SMILES | reduction in induced colitis (induced colitis) | D10 [1] | D50 [1] | D90 [1] | D10 ([1]; listed as Batch C) | D50 ([1]; listed as Batch C) | D90 ([1]; listed as Batch C)
1 | Nc1nc(=S)c2[nH]cnc2[nH]1 [6-thioguanine, 2-amino-1H-purine-6(7H)-thione] | rapid and appreciable reduction in induced colitis |  |  |  |  |  | 
2 | Nc1nc(=S)c2[nH]cnc2[nH]1 [B, 6-thioguanine] |  | 5.3 μm | 69.1 μm | 267.0 μm |  |  | 
3 | Nc1nc(=S)c2[nH]cnc2[nH]1 [Sample A, 6-thioguanine] |  | 5.4 μm | 66.8 μm | 261.0 μm |  |  | 
4 | Nc1nc(=S)c2[nH]cnc2[nH]1 [Sample C, 6-thioguanine] |  | 2.9 μm | 9.0 μm | 151.0 μm | 2.9 μm | 9.0 μm | 151.0 μm

Reference: patent US12622914B2, “Pharmaceutical rectal suppository compositions of 6-thioguanine, methods of treatment and/or methods of manufacturing” (Douglas Pharmaceuticals Ltd., priority 2023, dated 2026)
